Test results: the NIST ThermoML archive (doi:10.1021/je0602418)
Where “and” joins values, the source holds several entries; their conditions need not be identical. Equal values may be shown once.

Conditions: Liquid; for Critical pressure / Critical temperature: pulse heating method

COC(=O)CCC(=O)OC [dimethyl 1,4-butanedioate]
Transpiration method
Conditions | vapor or sublimation pressure [kPa]
286.4 K | 0.01062
289.4 K | 0.01389
292.3 K | 0.01793
295.2 K | 0.02339
298.1 K | 0.0292
301.1 K | 0.03798
304.2 K | 0.04988
307.2 K | 0.06242
310.2 K | 0.07685
313.2 K | 0.09759
316.2 K | 0.1187
319.2 K | 0.1462
322.3 K | 0.1846
325.3 K | 0.2206
328.3 K | 0.2686
331.4 K | 0.3232
334.5 K | 0.395
337.5 K | 0.4891
340.6 K | 0.6151

Conditions | Critical pressure [kPa] | Critical temperature [K]
– | 3060 | 662

COC(=O)CCCCC(=O)OC [dimethyl 1,6-hexanedioate]
Conditions | Critical pressure [kPa] | Critical temperature [K] | vapor or sublimation pressure
– | 2500 | 692 | –
294.2 K | – | – | 0.00284 kPa
297.1 K | – | – | 0.00356 kPa
297.4 K | – | – | 0.00377 kPa
298.1 K | – | – | 0.00391 kPa
300.6 K | – | – | 0.00505 kPa
303.1 K | – | – | 0.00619 kPa
303.3 K | – | – | 0.00649 kPa
305.4 K | – | – | 0.00775 kPa
308.1 K | – | – | 0.00948 kPa and 0.00946 kPa
311.6 K | – | – | 0.01308 kPa
313.2 K | – | – | 0.01501 kPa
314.4 K | – | – | 0.01648 kPa
317.2 K | – | – | 0.02059 kPa
318.2 K | – | – | 0.02254 kPa
318.5 K | – | – | 0.02198 kPa
320.2 K | – | – | 0.02543 kPa
323.3 K | – | – | 0.03244 kPa
323.4 K | – | – | 0.03434 kPa
326.2 K | – | – | 0.03996 kPa
328.3 K | – | – | 0.05027 kPa
332.2 K | – | – | 0.06088 kPa
333.2 K | – | – | 0.07135 kPa
334.3 K | – | – | 0.07203 kPa
337.4 K | – | – | 0.08819 kPa
338.5 K | – | – | 0.1013 kPa and 0.1038 kPa
340.2 K | – | – | 0.1114 kPa
343.5 K | – | – | 0.1393 kPa and 0.1369 kPa
348.5 K | – | – | 0.1893 kPa
348.6 K | – | – | 0.2004 kPa
351.7 K | – | – | 0.2406 kPa
353.6 K | – | – | 0.2604 kPa
358.6 K | – | – | 0.3551 kPa and 0.3732 kPa
361.7 K | – | – | 0.446 kPa
363.7 K | – | – | 0.4731 kPa
368.7 K | – | – | 0.6312 kPa and 0.676 kPa
369.7 K | – | – | 0.6863 kPa
373.8 K | – | – | 0.8347 kPa and 0.8876 kPa

COC(=O)CCCCCCCC(=O)OC [dimethyl nonanedioate]
Conditions | vapor or sublimation pressure
298.1 K | 0.00019 kPa
303.1 K | 0.00028 kPa
308.1 K | 0.00054 kPa
313.2 K | 0.0008 kPa and 0.00084 kPa
318.2 K | 0.00138 kPa and 0.00131 kPa
320.2 K | 0.00167 kPa and 0.00164 kPa
323.3 K | 0.00226 kPa
323.4 K | 0.00228 kPa
325.3 K | 0.00278 kPa
328.3 K | 0.00335 kPa and 0.00362 kPa
330.8 K | 0.00466 kPa
333.4 K | 0.00549 kPa and 0.00561 kPa
335.9 K | 0.00711 kPa
338.4 K | 0.00771 kPa and 0.00858 kPa
341 K | 0.01011 kPa
343.4 K | 0.01171 kPa
343.8 K | 0.01311 kPa
348.5 K | 0.01757 kPa
348.6 K | 0.0185 kPa
351.1 K | 0.02169 kPa
353.6 K | 0.02548 kPa and 0.02436 kPa and 0.02518 kPa
358.6 K | 0.03663 kPa
358.7 K | 0.03635 kPa
360.2 K | 0.04123 kPa
363.7 K | 0.05391 kPa and 0.05451 kPa
366.2 K | 0.0656 kPa
368.9 K | 0.07601 kPa and 0.08031 kPa
371.3 K | 0.08918 kPa and 0.08695 kPa
373.8 K | 0.1016 kPa and 0.1065 kPa

COC(=O)CCCCCCCCC(=O)OC [dimethyl sebacate]
Conditions | Critical pressure [kPa] | Critical temperature [K] | vapor or sublimation pressure [kPa]
– | 2080 | 742 | –
304.1 K | – | – | 0.00014
308.1 K | – | – | 0.0002
313.2 K | – | – | 0.00036
318.2 K | – | – | 0.00059
323.4 K | – | – | 0.00101
328.3 K | – | – | 0.00162
333.4 K | – | – | 0.0025
338.4 K | – | – | 0.00388
343.5 K | – | – | 0.00594
348.2 K | – | – | 0.00839
353.6 K | – | – | 0.01405
355.6 K | – | – | 0.01486
358.6 K | – | – | 0.01849
363.7 K | – | – | 0.02808
368.8 K | – | – | 0.03965
373.8 K | – | – | 0.05473

COC(=O)CC(=O)OC [dimethyl 1,3-propanedioate]
Transpiration method
Conditions | vapor or sublimation pressure [kPa]
278.2 K | 0.0117
281.2 K | 0.01507
284.3 K | 0.01969
287.2 K | 0.02593
290.8 K | 0.03523
293.2 K | 0.04253
296.1 K | 0.0533
298 K | 0.06386
299.4 K | 0.06974
302.2 K | 0.08729
303.3 K | 0.09423
305.3 K | 0.1063
308.4 K | 0.1313
311.2 K | 0.165
314.3 K | 0.2046

Conditions | Critical pressure [kPa] | Critical temperature [K]
– | 3530 | 649
